# Laboratory results published in ChEMBL document CHEMBL1821719, “2,7-disubstituted-pyrrolo[2,1-f][1,2,4]triazines: new variant of an old template and application to the discovery of anaplastic lymphoma kinase (ALK) inhibitors with in vivo antitumor activity” (J Med Chem, 2011).
# Tests used:
# [1] = biological target: ALK tyrosine kinase receptor (Homo sapiens, UniProt Q9UM73); assay: Inhibition of human recombinant ALK assessed as phosphorylated product using PLC-gamma/GST substrate by modified ELISA method
# Sequence of ALK tyrosine kinase receptor (Q9UM73 whole entry): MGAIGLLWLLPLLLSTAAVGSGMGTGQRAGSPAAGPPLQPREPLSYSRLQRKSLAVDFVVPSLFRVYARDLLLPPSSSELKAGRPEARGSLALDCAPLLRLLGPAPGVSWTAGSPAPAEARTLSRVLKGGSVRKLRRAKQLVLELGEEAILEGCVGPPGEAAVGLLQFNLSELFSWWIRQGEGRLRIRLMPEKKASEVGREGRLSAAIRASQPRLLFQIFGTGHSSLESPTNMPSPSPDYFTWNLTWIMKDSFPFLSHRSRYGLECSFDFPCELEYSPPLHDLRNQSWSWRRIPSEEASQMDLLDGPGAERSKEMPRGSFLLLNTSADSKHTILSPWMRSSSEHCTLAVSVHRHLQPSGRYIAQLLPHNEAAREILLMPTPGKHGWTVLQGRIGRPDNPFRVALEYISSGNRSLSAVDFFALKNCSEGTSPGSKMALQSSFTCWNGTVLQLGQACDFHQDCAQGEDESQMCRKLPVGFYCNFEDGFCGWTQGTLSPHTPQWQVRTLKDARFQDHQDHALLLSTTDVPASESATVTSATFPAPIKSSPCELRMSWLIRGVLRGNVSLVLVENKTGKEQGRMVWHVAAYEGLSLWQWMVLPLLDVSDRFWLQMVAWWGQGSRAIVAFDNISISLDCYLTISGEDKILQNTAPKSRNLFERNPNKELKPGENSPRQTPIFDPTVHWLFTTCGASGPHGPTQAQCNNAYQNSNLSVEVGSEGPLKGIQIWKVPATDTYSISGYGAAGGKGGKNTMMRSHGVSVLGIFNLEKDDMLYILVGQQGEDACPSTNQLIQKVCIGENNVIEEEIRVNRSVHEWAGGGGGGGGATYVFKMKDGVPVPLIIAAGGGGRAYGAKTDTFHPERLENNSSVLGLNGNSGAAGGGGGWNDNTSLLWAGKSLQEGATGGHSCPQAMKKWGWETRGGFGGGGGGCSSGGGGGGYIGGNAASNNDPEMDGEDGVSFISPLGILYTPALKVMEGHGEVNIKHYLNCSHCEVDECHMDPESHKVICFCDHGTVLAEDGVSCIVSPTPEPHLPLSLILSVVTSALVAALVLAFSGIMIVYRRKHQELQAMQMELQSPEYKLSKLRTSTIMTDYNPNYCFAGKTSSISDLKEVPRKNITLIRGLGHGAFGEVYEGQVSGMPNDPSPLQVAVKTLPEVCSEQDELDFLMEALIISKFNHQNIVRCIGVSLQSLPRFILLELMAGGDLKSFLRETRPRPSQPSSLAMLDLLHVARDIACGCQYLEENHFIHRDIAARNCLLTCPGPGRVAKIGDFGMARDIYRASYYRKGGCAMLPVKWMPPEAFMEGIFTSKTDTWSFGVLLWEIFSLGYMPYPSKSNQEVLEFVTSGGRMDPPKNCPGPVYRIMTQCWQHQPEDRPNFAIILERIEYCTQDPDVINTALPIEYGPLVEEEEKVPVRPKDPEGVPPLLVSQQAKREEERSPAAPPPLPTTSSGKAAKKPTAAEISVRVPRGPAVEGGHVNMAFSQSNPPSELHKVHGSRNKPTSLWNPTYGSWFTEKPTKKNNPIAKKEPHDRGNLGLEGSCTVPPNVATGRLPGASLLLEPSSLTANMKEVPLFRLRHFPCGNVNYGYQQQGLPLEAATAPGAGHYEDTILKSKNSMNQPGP
# Insulin receptor = Insulin receptor (Homo sapiens, UniProt P06213); assay: Inhibition of IR
# Sequence of Insulin receptor (P06213 28-758 limits assumed): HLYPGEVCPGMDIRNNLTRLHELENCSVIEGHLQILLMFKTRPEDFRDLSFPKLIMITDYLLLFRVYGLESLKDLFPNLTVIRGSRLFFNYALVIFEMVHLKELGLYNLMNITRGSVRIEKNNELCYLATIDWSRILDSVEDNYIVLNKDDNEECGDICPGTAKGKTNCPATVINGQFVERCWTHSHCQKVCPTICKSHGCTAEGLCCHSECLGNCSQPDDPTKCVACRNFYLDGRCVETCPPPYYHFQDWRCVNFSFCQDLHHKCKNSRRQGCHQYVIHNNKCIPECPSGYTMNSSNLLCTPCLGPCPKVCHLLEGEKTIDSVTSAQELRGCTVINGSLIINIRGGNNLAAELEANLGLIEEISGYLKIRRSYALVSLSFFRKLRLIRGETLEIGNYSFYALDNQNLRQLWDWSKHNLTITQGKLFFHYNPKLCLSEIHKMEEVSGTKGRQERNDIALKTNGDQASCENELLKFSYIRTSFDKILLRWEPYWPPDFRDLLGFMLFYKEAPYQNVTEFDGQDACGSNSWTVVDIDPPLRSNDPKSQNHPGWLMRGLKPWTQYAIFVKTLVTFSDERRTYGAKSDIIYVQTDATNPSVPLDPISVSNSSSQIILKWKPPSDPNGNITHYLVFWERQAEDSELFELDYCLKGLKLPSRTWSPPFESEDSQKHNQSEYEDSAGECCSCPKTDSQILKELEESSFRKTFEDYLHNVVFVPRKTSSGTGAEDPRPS
# Sequence of Insulin receptor (P06213 763-1382 limits assumed): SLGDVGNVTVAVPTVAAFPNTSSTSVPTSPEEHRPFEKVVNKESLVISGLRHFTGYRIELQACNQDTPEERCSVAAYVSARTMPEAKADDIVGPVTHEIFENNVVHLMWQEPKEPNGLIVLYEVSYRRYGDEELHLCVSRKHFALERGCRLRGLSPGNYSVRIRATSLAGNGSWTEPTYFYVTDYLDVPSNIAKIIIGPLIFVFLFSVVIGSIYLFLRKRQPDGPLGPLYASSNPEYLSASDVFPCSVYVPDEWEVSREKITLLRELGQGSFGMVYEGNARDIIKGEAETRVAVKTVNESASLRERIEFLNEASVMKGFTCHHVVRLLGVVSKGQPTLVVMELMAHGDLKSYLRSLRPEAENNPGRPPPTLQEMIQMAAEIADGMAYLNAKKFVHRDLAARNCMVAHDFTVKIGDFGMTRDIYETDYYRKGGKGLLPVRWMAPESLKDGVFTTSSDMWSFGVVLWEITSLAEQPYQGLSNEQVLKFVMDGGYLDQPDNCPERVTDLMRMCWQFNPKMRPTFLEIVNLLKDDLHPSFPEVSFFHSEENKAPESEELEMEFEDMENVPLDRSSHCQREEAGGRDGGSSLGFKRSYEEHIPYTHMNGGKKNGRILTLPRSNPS
# [2] = biological target: NPM/ALK (Nucleophosmin/ALK tyrosine kinase receptor) (Homo sapiens, UniProt Q9UM73); assay: Inhibition of NPM/ALK phosphorylation in human KARPAS299 cells by ELISA; format: cell-based, KARPAS-299
# Sequence of NPM/ALK (Nucleophosmin/ALK tyrosine kinase receptor) (Q9UM73 whole entry): as the sequence (Q9UM73 whole entry) above
# Sequence of NPM/ALK (Nucleophosmin/ALK tyrosine kinase receptor) (P06748 whole entry, further chain): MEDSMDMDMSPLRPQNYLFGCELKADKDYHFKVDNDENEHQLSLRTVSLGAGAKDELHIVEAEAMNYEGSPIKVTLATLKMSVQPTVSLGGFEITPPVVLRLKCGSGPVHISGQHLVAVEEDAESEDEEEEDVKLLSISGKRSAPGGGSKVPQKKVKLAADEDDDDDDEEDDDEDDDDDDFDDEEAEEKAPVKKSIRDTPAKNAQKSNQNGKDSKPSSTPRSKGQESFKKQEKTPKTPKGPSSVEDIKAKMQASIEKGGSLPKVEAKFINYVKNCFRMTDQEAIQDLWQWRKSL
# [3] = Oral bioavailability in Sprague-Dawley rat; format: ADME, organism-based; details: in vivo
# [4] = Antitumor activity against human SUP-M2 cells xenografted into SCID mouse at 55 mg/kg, po administered bid; format: functional; details: read-out: TGI
# [5] = Antitumor activity against human SUP-M2 cells xenografted into SCID mouse at 30 mg/kg, po bid; format: functional; details: read-out: TGI
# Mus musculus [6] = assay: Toxicity in SCID mouse assessed as weight loss at 30 mg/kg, po bid; format: organism-based; parameters: dose 30 mg/kg, route oral; details: in vivo
# Mus musculus [7] = assay: Toxicity in SCID mouse assessed as weight loss at 55 mg/kg, po bid; format: organism-based; parameters: dose 55 mg/kg, route oral; details: in vivo
# Mus musculus [8] = assay: Toxicity in SCID mouse assessed as weight loss at 10 mg/kg, po bid; format: organism-based; parameters: dose 10 mg/kg, route oral; details: in vivo
# [9] = Tmax in Sprague-Dawley rat at 5 mg/kg, po; format: ADME, organism-based; parameters: dose 5 mg/kg, route oral; details: in vivo
# [10] = Drug level in human SUP-M2 cells xenografted SCID mouse tumor at 30 mg/kg, po bid for 12 days measured after 2 hrs of final dose by LC/MS analysis; format: ADME, organism-based, Neoplasm; parameters: dose 30 mg/kg, route oral; details: read-out: Drug uptake
# [11] = Drug level in human SUP-M2 cells xenografted SCID mouse tumor at 30 mg/kg, po after 24 hrs by LC/MS analysis; format: ADME, organism-based, Neoplasm; parameters: dose 30 mg/kg, route oral; details: read-out: Drug uptake
# [12] = AUC in Sprague-Dawley rat at 1 mg/kg, iv; format: ADME, organism-based; parameters: dose 1 mg/kg, route intravenous; details: plasma
# [13] = Oral bioavailability in Sprague-Dawley rat at 5 mg/kg; format: ADME, organism-based; details: in vivo
# [14] = Drug level in human SUP-M2 cells xenografted SCID mouse tumor at 10 mg/kg, po bid for 12 days measured after 2 hrs of final dose by LC/MS analysis; format: ADME, organism-based, Neoplasm; parameters: dose 10 mg/kg, route oral; details: read-out: Drug uptake
# [15] = AUC in Sprague-Dawley rat at 5 mg/kg, po; format: ADME, organism-based; parameters: dose 5 mg/kg, route oral; details: plasma
# [16] = Drug level in human SUP-M2 cells xenografted SCID mouse tumor at 30 mg/kg, po after 2 hrs by LC/MS analysis; format: ADME, organism-based, Neoplasm; parameters: dose 30 mg/kg, route oral; details: read-out: Drug uptake
# [17] = Plasma concentration in human SUP-M2 cells xenografted SCID mouse at 30 mg/kg, po measured after 12 hrs by LC/MS analysis; format: ADME, organism-based; parameters: dose 30 mg/kg, route oral
# [18] = Antiproliferative activity against human SUP-M2 cells after 48 hrs by MTS assay; format: functional, cell-based; details: SUP-M2, 48 h
# [19] = Apparent permeability from apical to basolateral side of human Caco2 cells; format: ADME, cell-based; details: Caco-2
# [20] = Plasma concentration in human SUP-M2 cells xenografted SCID mouse at 10 mg/kg, po bid for 12 days measured after 2 hrs of final dose by LC/MS analysis; format: ADME, organism-based; parameters: dose 10 mg/kg, route oral
# [21] = Plasma concentration in human SUP-M2 cells xenografted SCID mouse at 30 mg/kg, po measured after 2 hrs by LC/MS analysis; format: ADME, organism-based; parameters: dose 30 mg/kg, route oral
# [22] = Plasma concentration in human SUP-M2 cells xenografted SCID mouse at 30 mg/kg, po measured after 6 hrs by LC/MS analysis; format: ADME, organism-based; parameters: dose 30 mg/kg, route oral
# [23] = Plasma concentration in human SUP-M2 cells xenografted SCID mouse at 30 mg/kg, po bid for 12 days measured after 2 hrs of final dose by LC/MS analysis; format: ADME, organism-based; parameters: dose 30 mg/kg, route oral
# [24] = Drug level in human SUP-M2 cells xenografted SCID mouse tumor at 30 mg/kg, po after 12 hrs by LC/MS analysis; format: ADME, organism-based, Neoplasm; parameters: dose 30 mg/kg, route oral; details: read-out: Drug uptake
# [25] = AUC in SCID mouse at 1 mg/kg, iv; format: ADME, organism-based; parameters: dose 1 mg/kg, route intravenous; details: plasma
# KARPAS-299 = assay: Antiproliferative activity against human KARPAS299 cells by MTS assay; format: functional, cell-based
# [26] = Volume of distribution in SCID mouse at 1 mg/kg, iv; format: ADME, organism-based; parameters: dose 1 mg/kg, route intravenous; details: in vivo
# [27] = AUC in SCID mouse at 10 mg/kg, po; format: ADME, organism-based; parameters: dose 10 mg/kg, route oral; details: plasma
# [28] = Drug level in human SUP-M2 cells xenografted SCID mouse tumor at 30 mg/kg, po after 6 hrs by LC/MS analysis; format: ADME, organism-based, Neoplasm; parameters: dose 30 mg/kg, route oral; details: read-out: Drug uptake
# [29] = Oral bioavailability in SCID mouse at 10 mg/kg; format: ADME, organism-based; details: in vivo
# [30] = Inhibition of NPM-ALK phosphorylation in SUP-M2 cells xenografted in SCID mouse at 30 mg/kg, po measured upto 12 hrs by immunoblotting; format: functional; details: SUP-M2, 12 h
# [31] = Antitumor activity against human SUP-M2 cells xenografted into SCID mouse at 10 mg/kg, po bid; format: functional; details: read-out: TGI
# [32] = Volume of distribution in Sprague-Dawley rat at 1 mg/kg, iv; format: ADME, organism-based; parameters: dose 1 mg/kg, route intravenous; details: in vivo
# [33] = Tmax in SCID mouse at 10 mg/kg, po; format: ADME, organism-based; parameters: dose 10 mg/kg, route oral; details: in vivo
# [34] = Plasma concentration in human SUP-M2 cells xenografted SCID mouse at 30 mg/kg, po measured after 24 hrs by LC/MS analysis; format: ADME, organism-based; parameters: dose 30 mg/kg, route oral
# [35] = Plasma concentration in human SUP-M2 cells xenografted SCID mouse at 55 mg/kg, po bid for 12 days measured after 2 hrs of final dose by LC/MS analysis; format: ADME, organism-based; parameters: dose 55 mg/kg, route oral
smiles,measurement,setting,value
CN1CCN(c2ccc(Nc3ncc4ccc(-c5ccccc5NS(C)(=O)=O)n4n3)cc2)CC1,IC50,[1],260 nM
same,IC50,Insulin receptor,1870 nM
COc1cc(N2CCN(C)CC2)ccc1Nc1ncc2ccc(-c3ccccc3OC)n2n1,IC50,[1],9 nM
same,IC50,[2],100 nM
same,IC50,Insulin receptor,391 nM
COc1cc(N2CCN(C[C@H](C)O)CC2)ccc1Nc1ncc2ccc(-c3ccccc3OC)n2n1,IC50,[1],5 nM
same,bioavailability,[3],8%
same,IC50,[2],100 nM
same,IC50,Insulin receptor,206 nM
COc1cc(N2CCN(C[C@@H](C)O)CC2)ccc1Nc1ncc2ccc(-c3ccccc3OC)n2n1,IC50,[1],3.8 nM
same,bioavailability,[3],6%
same,IC50,[2],80 nM
same,IC50,Insulin receptor,160 nM
COc1cc(N2CCN(N3CCOCC3)CC2)ccc1Nc1ncc2ccc(-c3ccccc3OC)n2n1,inhibition in vivo at 55 mg/kg,[4],98%
same,IC50,[1],9 nM
same,bioavailability,[3],34%
same,IC50,[2],85 nM
same,inhibition in vivo at 30 mg/kg,[5],60%
same,Activity,Mus musculus [6],Non-toxic
same,IC50,Insulin receptor,357 nM
same,Activity,Mus musculus [7],Non-toxic
same,Activity,Mus musculus [8],Non-toxic
COc1cc(N2CCN(C)CC2)ccc1Nc1ncc2ccc(-c3ccccc3N(C)S(C)(=O)=O)n2n1,IC50,[1],9 nM
same,IC50,[2],200 nM
same,IC50,Insulin receptor,934 nM
COc1cc(N2CCN(C[C@H](C)O)CC2)ccc1Nc1ncc2ccc(-c3ccccc3N(C)S(C)(=O)=O)n2n1,Tmax,[9],2 h
same,concentration at 2 h,[10],3120 ng/g
same,inhibition in vivo at 55 mg/kg,[4],98%
same,concentration at 24 h,[11],< 30 ng/g
same,AUC,[12],343 ng·h/mL
same,bioavailability,[13],38%
same,concentration at 2 h,[14],1530 ng/g
same,AUC,[15],610 ng·h/mL
same,concentration at 2 h,[16],1440 ng/g
same,bioavailability,[3],38%
same,concentration at 12 h,[17],155 ng/mL
same,inhibition in vivo at 30 mg/kg,[5],81%
same,IC50,[18],87 nM
same,Papp A→B,[19],20.3 ×10⁻⁶ cm/s
same,concentration at 2 h,[20],516 ng/mL
same,concentration at 2 h,[21],2160 ng/mL
same,concentration at 6 h,[22],950 ng/mL
same,concentration at 2 h,[23],1580 ng/mL
same,concentration at 12 h,[24],235 ng/g
same,AUC,[25],661 ng·h/mL
same,IC50,KARPAS-299,477 nM
same,Vd,[26],2.1 L/kg
same,AUC,[27],2520 ng·h/mL
same,concentration at 6 h,[28],792 ng/g
same,bioavailability,[29],36%
same,inhibition in vivo at 30 mg/kg,[30],75%
same,inhibition in vivo at 10 mg/kg,[31],35%
same,Vd,[32],3.3 L/kg
same,Tmax,[33],1 h
same,concentration at 24 h,[34],< 10 ng/mL
same,concentration at 2 h,[35],2890 ng/mL
COc1cc(N2CCN(C[C@@H](C)O)CC2)ccc1Nc1ncc2ccc(-c3ccccc3N(C)S(C)(=O)=O)n2n1,bioavailability,[3],41%
COc1cc(N2CCC(N3CCOCC3)CC2)ccc1Nc1ncc2ccc(-c3ccccc3N(C)S(C)(=O)=O)n2n1,inhibition in vivo at 55 mg/kg,[4],96%
same,IC50,[1],7 nM
same,bioavailability,[3],47%
same,IC50,[2],50 nM
same,inhibition in vivo at 30 mg/kg,[5],50%
same,Activity,Mus musculus [6],Non-toxic
same,IC50,Insulin receptor,809 nM
same,Activity,Mus musculus [7],Non-toxic
same,Activity,Mus musculus [8],Non-toxic
